Experimental data taken from patent US9579318B2, “Histamine 4 receptor partial agonists, inverse agonists or antagonists for use in treating non-autoimmune uveitis” (UCL BUSINESS PLC, priority 2013, dated 2017).

Assays:
[1] = tested on: experimental autoimmune uveitis (EAU) in C57B1/6 mice; experiment: Experimental autoimmune uveitis (EAU) model, therapeutic treatment, histological scoring; format: in vivo; conditions: EAU C57B1/6 mice, disease established, 5 doses, eyes harvested day 19 (FIG. 1)
Excerpt: Whilst CD4+T cells are crucial for disease induction, it is now established in the literature (see Dick et al 2012) that tissue resident cells (microglia, macrophages) and infiltrating inflammatory cells (CD11b+granulocytes) contribute to the perpetuation of the inflammation in the C57BL/6 mouse, where evidence of retinal inflammation can be observed up to day 56 post immunization. In our study EAU was induced in C57B1/6 mice using subcutaneous administration of IRBP peptide emulsified in complete Freund's adjuvant (CFA) supplemented with […] mycobacterium, and intraperitoneal immunisation with Pertussis toxin. Clinical signs of EAU disease were monitored using non-invasive retinal fundus imaging (TEFI) until signs of retinal inflammatory disease were observed (usually by day 14). At this point mice were divided into treatment groups. A total of 45 mice were used, with groups as follows: CFA controls n=4; EAU controls n=6; JNJ 7777120 16 mg/kg n=5; 994 10 mg/kg n=5; 994 30 mg/kg n=5; 994 100 mg/kg n=5; 1006 10 mg/kg n=5; 1006 30 mg/kg n=5; 1006 100 mg/kg n=5. Each treatment group of mice received 5 intraperitoneal doses of compound, once per day, until day 19 when eyes were harvested. At this point eyes were processed and fixed, and histological sections were prepared. Histological scoring by light microscopy was done according to established methods (Gegg et al, 2005) where a score of 1.0 reflects inflammatory cells present in the vitreous cavity but not throughout the retinal layers, and the photoreceptor layer is as normal. A score of 2.0 reflects cells within the outer retinal layers, with some granuloma formation. A score of 3.0 reflects cells within the photoreceptor layer, some retinal folding, a focal loss of photoreceptor cells. […] This is an impressive effect since disease was already established. In most treatment studies mice are pretreated with drug prior to inducing EAU.

[2] = tested on: endotoxin induced uveitis (EIU) in mice; experiment: Endotoxin induced uveitis (EIU) model, CD11b+ cells in retina by flow cytometry; format: in vivo; conditions: pretreated with 0.1, 1.0 and 10.0 mM eyedrops twice daily for 3 days before LPS, eyes harvested 24 hours later (FIG. 2)
Method: EIU is a more acute form of anterior uveitis, induced by intraperitoneal immunization with LPS (endotoxin), and clinical signs of uveitis can be observed within 24-48 hours post immunisation. Due to the narrow time frame of disease, in our study mice (n=2 per group) were pretreated with three different concentrations of JNJ777120 compound (0.1, 1.0 and 10.0 mM) given twice daily as eyedrops for 3 days prior to inducing EIU, and eyes harvested 24 hours later. In this study, retinas were dissected from each eye and single cell suspensions prepared for staining with CD11b (to stain for granulocytes), and analysed by flow cytometry, Each eye was kept separate, so results are shown as means of 4 retinae in each group, in comparison with 6 eyes from 3 EIU non-treated control mice.

Compound: CN1CCN(C(=O)c2cc3cc(Cl)ccc3[nH]2)CC1 [JNJ7777120, 1-[(5-chloro-1H-indol-2-yl)carbonyl]-4-methylpiperazine]
- histological scores (retinal inflammation, light microscopy) ([1]; 16 mg/kg i.p. once per day): reduced the histological scores to control levels
- levels of infiltrating granulocytes (numbers of CD11b+ cells in retina) [2]: significantly decreased the levels of infiltrating granulocytes

Compound: Cc1ccc(CNc2cc(N3CCN(C)CC3)nc(N)n2)cc1.O=C(O)/C=C\C(=O)O [compound 994]
- histological scores (retinal inflammation, light microscopy) ([1]; 100 mg/kg i.p. once per day): reduced the histological scores to control levels

Compound: CN1CCN(c2cc(NCc3c(Cl)cccc3Cl)nc(N)n2)CC1.O=C(O)/C=C\C(=O)O [compound 1006]
- histological scores (retinal inflammation, light microscopy) ([1]; 30 mg/kg i.p. once per day): reduced the histological scores to control levels
